Source: article PMC3590450, “Analysis of substrate specificity and cyclin Y binding of PCTAIRE-1 kinase” (Cellular Signalling, 2012)
Values joined by “and” are separate entries in the source; they are usually repeats but may differ in a detail not shown here. Equal values may be shown once. Each block holds one molecule with its values, some of them ahead of it.

What was measured:
[1] = molecular target: T1, GST–PCTAIRE-1 (Homo sapiens, UniProt Q00536); test: In vitro phosphotransferase (kinase) assay of purified GST–PCTAIRE-1 on peptide substrates; type: biochemical; conditions: 1 μg GST–PCTAIRE-1, peptide 0-100 μM, mean ± SEM
T1 construct: made in house; host or cells: HEK293 cells, transient transfection with pEBG6P
T1 sequence (Q00536 whole entry): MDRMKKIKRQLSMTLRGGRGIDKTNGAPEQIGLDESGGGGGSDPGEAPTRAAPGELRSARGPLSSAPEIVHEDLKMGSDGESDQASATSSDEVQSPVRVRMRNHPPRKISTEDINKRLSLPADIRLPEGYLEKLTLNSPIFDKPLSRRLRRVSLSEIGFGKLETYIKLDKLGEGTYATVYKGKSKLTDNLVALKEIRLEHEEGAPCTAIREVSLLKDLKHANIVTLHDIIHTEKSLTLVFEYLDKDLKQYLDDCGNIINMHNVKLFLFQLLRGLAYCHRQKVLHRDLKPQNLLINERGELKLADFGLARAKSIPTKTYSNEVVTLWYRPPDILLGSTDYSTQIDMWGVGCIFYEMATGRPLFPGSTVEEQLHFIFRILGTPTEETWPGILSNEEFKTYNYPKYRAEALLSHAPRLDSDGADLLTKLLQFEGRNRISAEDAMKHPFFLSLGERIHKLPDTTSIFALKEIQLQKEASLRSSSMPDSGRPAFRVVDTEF
Protocol: (§1) HEK293 cells were transfected with pEBG6P encoding GST-tagged human PCTAIRE-1 and harvested 36 h later as described above. GST–PCTAIRE-1 was isolated by batch-wise purification using Glutathione-Sepharose 4B. Briefly, lysates were incubated with equilibrated resin for 1 h at 4 °C, washed extensively with lysis buffer and eluted with 20 mM reduced glutathione in 50 mM Tris–HCl pH 8, 0.27 M sucrose, 0.1 mM EGTA and 1 mM DTT. Protein concentration was estimated by densitometry of Coomassie-stained gels using BSA standards. PCTAIRE-1 preparations were snap-frozen in N2(l) and stored at − 80 °C.
(§2) Fig. 1 Determination of PCTAIRE-1 optimal substrate motif. […] (B) GST–PCTAIRE-1 WT/KD was prepared as described in (A) and the optimal substrate motif determined by positional scanning peptide library screening (PSPL) as described in Materials and methods. (C) The activity of GST–PCTAIRE-1 (1 μg) and CDK2–cyclin A2 (10 ng) was assayed against a panel of CDK-tide derivatives (concentration fixed at 250 μM) based on the results of the degenerate library screen (modifications are underlined). Results are expressed as mean ± SEM and are representative of 3 independent experiments.
(§3) Purified rPCTAIRE-1, rCDK2–cyclin A2 or immune complexes isolated from cell/tissue lysates were assayed for phosphotransferase activity in a final assay volume of 50 μl containing 50 mM HEPES pH 7.5, 0.1 mM EGTA, 10 mM Mg(OAc)2, 0.1 mM [γ-^32P] ATP (300 CPM pmol^− 1), 1 mM DTT and the indicated concentrations of peptide substrate. Reactions were incubated at 30 °C and terminated by spotting onto P81 paper and immersion in 75 mM H3PO4. P81 filters were washed 3 × 10 min with H3PO4, rinsed with acetone, air-dried and incorporation of [γ-^32P] determined by Cherenkov counting. Results are expressed in U mg^− 1, where 1 U is defined as the incorporation of 1 nmol phosphate.min^− 1.
(§4) Fig. 2 Optimisation of PCTAIRE-1 substrate peptide. The in vitro phosphotransferase activity of 1 μg GST–PCTAIRE-1 (A) and 10 ng CDK2–cyclin A2 (B) was determined using a panel of CDK-tide derivatives (modifications from the parental peptide are underlined). Peptide conc. was varied over the range 0 > 100 μM and substrate saturation curves were fitted by non-linear regression to the Michaelis–Menten model. Fitted parameters [Km (μM) and Vmax (mU mg^− 1)] are listed in the adjoining table. (C) Based on the CDK-tide optimisation, derivatives of NSF-tide were synthesised (modifications underlined) and assayed for PCTAIRE-1 activity as described in (A + B). 100% GST–PCTAIRE-1 = 164 mU mg^− 1 and 100% CDK2–[…] = 940 U mg^− 1. (D) PCTAIRE-1 was immunoprecipitated from 2 mg of HEK293 lysate and kinase activity determined using 250 μM CDK-tide or the optimised substrate, PKS*PKARKKL (PCTAIRE-tide) as described in Materials and methods. Results are expressed as mean ± SEM and are representative of 3 independent experiments. […]

[2] = molecular target: T2, CDK2–cyclin A2 (Homo sapiens, UniProt P20248+P24941); test: In vitro phosphotransferase (kinase) assay of rCDK2–cyclin A2 on peptide substrates; type: biochemical; conditions: for CDK2-cyclin A2 Vmax: Fig. 2B table
T2 construct: made in house; host or cells: Escherichia coli
Protocol: PCTAIRE-1C-16 (sc-174) and PCTAIRE-1G6.1 (sc-53410) antibodies were from Santa Cruz Biotechnology. Cyclin Y antibody was from Proteintech. HA.11 (16B2) antibody was from Covance Research Products. The following antibodies were raised in sheep by the Division of Signal Transduction Therapy (DSTT, University of Dundee) against the indicated immunogens: PCTAIRE-1 (S552C, full length human 6×his-PCTAIRE-1), cyclin Y (S206D, full length human GST-cyclin Y). rCDK2–cyclin A2 was prepared by overexpression in Escherichia coli as previously described. Peptide substrates for kinase assays were synthesised by GL Biochem, and the peptide library was synthesised by Anaspec, Inc. [γ-^32P] ATP was from PerkinElmer. HRP-conjugated secondary antibodies were from Jackson Immunoresearch. Unless otherwise indicated all other reagents were from Sigma.
as §2, §3, §4

[3] = tested on: GST–PCTAIRE-1; test: In vitro phosphotransferase (kinase) assay of purified GST–PCTAIRE-1 on peptide substrates; type: biochemical, human; conditions: GST–PCTAIRE-1 from HEK293 vs CDK2–cyclin A2 from E. coli; data not shown
Protocol: as §1, §2, §3, §4

[4] = molecular target: FLAG-WT–PCTAIRE-1 (human, UniProt Q00536-1 1-496); test: cell-based or functional assay
Chain of FLAG-WT–PCTAIRE-1 (Q00536 whole entry): as above

[5] = Fig. 2A, CDK-tide derivatives, Michaelis–Menten fit, 0.1 mM [γ-32P]ATP, 30 °C, 1 U = 1 nmol phosphate min-1
[6] = Fig. 2A, CDK-tide derivatives, Michaelis–Menten non-linear regression, 0.1 mM [γ-32P]ATP, 30 °C, P81 paper, representative of 3 independent experiments
[7] = CDK-tide derivatives, 10 ng CDK2–cyclin A2, peptide 0-100 μM, Michaelis–Menten fit, mean ± SEM
[8] = Fig. 2B, CDK-tide derivatives, 10 ng CDK2–cyclin A2, peptide 0-100 μM, Michaelis–Menten fit, 0.1 mM [γ-32P]ATP, 30 °C, mean ± SEM, representative of 3 independent experiments

Molecule: PKSPKARKKL [optimal PCTAIRE-1 substrate peptide …, modified from the parental CDK substrate peptide]
- GST-PCTAIRE-1 Vmax [1, 5]: 550 ± 19 mU.mg^-1
- GST-PCTAIRE-1 Vmax ([1]; Fig. 2A, CDK-tide derivatives, Michaelis–Menten fit, 0.1 mM [γ-32P]ATP, 30 °C, 1 U = 1 nmol phosphate min-1, listed as PKSPKARKKL): ~ 550 mU.mg^-1
- Km [1, 6]: 4 ± 1 µM
- Km ([1]; Fig. 2A, CDK-tide derivatives, Michaelis–Menten non-linear regression, 0.1 mM [γ-32P]ATP, 30 °C, P81 paper, representative of 3 independent experiments, listed as PKSPKARKKL): ~4 µM
- CDK2-cyclin A2 Vmax [2, 7]: No fit
- CDK2-cyclin A2 Km [2, 8]: No fit

B1: HA-cyclin Y (natural protein, human, UniProt Q8ND76-1 1-341, looked up)
chain: MGNTTSCCVSSSPKLRRNAHSRLESYRPDTDLSREDTGCNLQHISDRENIDDLNMEFNPSDHPRASTIFLSKSQTDVREKRKSLFINHHPPGQIARKYSSCSTIFLDDSTVSQPNLKYTIKCVALAIYYHIKNRDPDGRMLLDIFDENLHPLSKSEVPPDYDKHNPEQKQIYRFVRTLFSAAQLTAECAIVTLVYLERLLTYAEIDICPANWKRIVLGAILLASKVWDDQAVWNVDYCQILKDITVEDMNELERQFLELLQFNINVPSSVYAKYYFDLRSLAEANNLSFPLEPLSRERAHKLEAISRLCEDKYKDLRRSARKRSASADNLTLPRWSPAIIS
- PCTAIRE-1 kinase activity of the immunoprecipitates towards 50 μM PCTAIRE-tide, with co-expressed cyclin Y against without [4]: > 100 fold

More lines, now with the values ahead:

- GST-PCTAIRE-1 Vmax [1, 5]: 71 ± 7 mU.mg^-1
- Km [1, 6]: 23 ± 6 µM
- Specific activity of PCTAIRE-1 towards the peptide, fold lower than that of CDK2–cyclin A2 [3]: > 2000 fold
- CDK2-cyclin A2 Vmax [2, 7]: 1100 ± 54 U.mg^-1
- Km [2, 8]: ~20 µM and 19 µM
- CDK2–cyclin A2 Vmax as stated in text ([2]; running text on Fig. 2B, one range stated for TPKKR, SPKKA and TPKKA together): 1100–1500 mU mg^− 1
Molecule: PKTPKKAKKL [generic CDK substrate peptide … derived from CDK phosphorylation sites of histone H1]

- Km ([1]; Fig. 2C, NSF-tide derivatives, Michaelis–Menten fit, 0.1 mM [γ-32P]ATP, 30 °C): 15 ± 6 µM
- GST-PCTAIRE-1 Vmax ([1]; Fig. 2C, NSF-tide derivatives, Michaelis–Menten fit): 34 ± 4 mU.mg^-1
Molecule: FIKICSPDKMIGRRR [peptide around Ser569 of human NSF with three extra C-terminal Arg]
